From ChEMBL document CHEMBL1139752, “New rifabutin analogs: synthesis and biological activity against Mycobacterium tuberculosis” (2006)
≈ marks a conversion by molar mass, not a printed value.

Key:
Format in all cases: functional
[1] = system: Mycobacterium tuberculosis; experiment: Antimycobacterial activity against rifampicin and rifabutin resistant Mycobacterium tuberculosis
[2] = system: Mycobacterium tuberculosis; experiment: Antimycobacterial activity against rifampicin and rifabutin resistant Mycobacterium tuberculosis ATCC 35838
[3] = system: Mycobacterium tuberculosis; experiment: Antimycobacterial activity against streptomycin resistant Mycobacterium tuberculosis ATCC 35820
[4] = system: Mycobacterium tuberculosis; experiment: Antimycobacterial activity against isoniazid resistant Mycobacterium tuberculosis ATCC 35822
[5] = system: Mycobacterium tuberculosis; experiment: Antimycobacterial activity against ethambutol resistant Mycobacterium tuberculosis ATCC 35837

SMILES	MIC [1] [µg/mL]	MIC [2] [µg/mL]	MIC [3] [µg/mL]	MIC [4] [µg/mL]	MIC [5] [µg/mL]
C=CCN1[C@@H](c2ccccc2)C[C@@]2(C[C@H]1c1ccccc1)N=C1C(=C3NC(=O)/C(C)=C\C=C\[C@H](C)[C@H](O)[C@@H](C)[C@H](O)[C@H](C)[C@H](OC(C)=O)[C@H](C)[C@@H](OC)/C=C/O[C@@]4(C)Oc5c(C)c(O)c(c1c5C4=O)C3=O)N2	> 1	> 1	0.02 (≈ 0.0203 µM)	0.02 (≈ 0.0203 µM)	0.02 (≈ 0.0203 µM)
CO[C@H]1/C=C/O[C@@]2(C)Oc3c(C)c(O)c4c(O)c(c(/C=N/N5CCN(C)CC5)c(O)c4c3C2=O)NC(=O)/C(C)=C\C=C\[C@H](C)[C@H](O)[C@@H](C)[C@@H](O)[C@@H](C)[C@H](OC(C)=O)[C@@H]1C [RIFAMPIN]	> 5	> 5	0.02 (≈ 0.0243 µM)	0.02 (≈ 0.0243 µM)	0.02 (≈ 0.0243 µM)
COc1ccc([C@@H]2C[C@]3(C[C@H](c4ccc(OC)cc4)N2)N=C2C(=C4NC(=O)/C(C)=C\C=C\[C@H](C)[C@H](O)[C@@H](C)[C@H](O)[C@H](C)[C@H](OC(C)=O)[C@H](C)[C@@H](OC)/C=C/O[C@@]5(C)Oc6c(C)c(O)c(c2c6C5=O)C4=O)N3)cc1	> 1	1 (≈ 0.997 µM)	0.02 (≈ 0.0199 µM)	0.02 (≈ 0.0199 µM)	0.02 (≈ 0.0199 µM)
C=CCCN1[C@@H](c2ccccc2)C[C@@]2(C[C@H]1c1ccccc1)N=C1C(=C3NC(=O)/C(C)=C\C=C\[C@H](C)[C@H](O)[C@@H](C)[C@H](O)[C@H](C)[C@H](OC(C)=O)[C@H](C)[C@@H](OC)/C=C/O[C@@]4(C)Oc5c(C)c(O)c(c1c5C4=O)C3=O)N2	> 1	> 1	0.02 (≈ 0.0201 µM)	0.02 (≈ 0.0201 µM)	0.02 (≈ 0.0201 µM)
CO[C@H]1/C=C/O[C@@]2(C)Oc3c(C)c(O)c4c(c3C2=O)C2=NC3(CCN(CC(C)C)CC3)NC2=C(NC(=O)/C(C)=C\C=C\[C@H](C)[C@H](O)[C@@H](C)[C@@H](O)[C@@H](C)[C@H](OC(C)=O)[C@@H]1C)C4=O [RIFABUTIN]	> 5	> 5	0.02 (≈ 0.0236 µM)	0.02 (≈ 0.0236 µM)	0.02 (≈ 0.0236 µM)
CO[C@H]1/C=C/O[C@@]2(C)Oc3c(C)c(O)c4c(c3C2=O)C2=N[C@@]3(C[C@@H](c5ccc(F)cc5)N[C@@H](c5ccc(F)cc5)C3)NC2=C(NC(=O)/C(C)=C\C=C\[C@H](C)[C@H](O)[C@@H](C)[C@H](O)[C@H](C)[C@H](OC(C)=O)[C@@H]1C)C4=O	0.3 (≈ 0.306 µM)	0.5 (≈ 0.511 µM)	0.02 (≈ 0.0204 µM)	0.02 (≈ 0.0204 µM)	0.02 (≈ 0.0204 µM)
CO[C@H]1/C=C/O[C@@]2(C)Oc3c(C)c(O)c4c(c3C2=O)C2=N[C@]3(C[C@@H](c5ccccc5)N[C@@H](c5ccccc5)C3)NC2=C(NC(=O)/C(C)=C\C=C\[C@H](C)[C@H](O)[C@@H](C)[C@H](O)[C@H](C)[C@H](OC(C)=O)[C@@H]1C)C4=O	> 1	1 (≈ 1.06 µM)	0.02 (≈ 0.0212 µM)	0.02 (≈ 0.0212 µM)	0.02 (≈ 0.0212 µM)
CCCCN1[C@@H](c2ccccc2)C[C@@]2(C[C@H]1c1ccccc1)N=C1C(=C3NC(=O)/C(C)=C\C=C\[C@H](C)[C@H](O)[C@@H](C)[C@H](O)[C@H](C)[C@H](OC(C)=O)[C@H](C)[C@@H](OC)/C=C/O[C@@]4(C)Oc5c(C)c(O)c(c1c5C4=O)C3=O)N2	> 1	1 (≈ 1 µM)	0.02 (≈ 0.02 µM)	0.02 (≈ 0.02 µM)	0.02 (≈ 0.02 µM)
CO[C@H]1/C=C/O[C@@]2(C)Oc3c(C)c(O)c4c(c3C2=O)C2=N[C@@]3(C[C@@H](c5ccccc5)N[C@@H](c5ccccc5)C3)NC2=C(NC(=O)/C(C)=C\C=C\[C@H](C)[C@H](O)[C@@H](C)[C@H](O)[C@H](C)[C@H](OC(C)=O)[C@@H]1C)C4=O	0.3 (≈ 0.318 µM)	0.5 (≈ 0.53 µM)	0.02 (≈ 0.0212 µM)	0.02 (≈ 0.0212 µM)	0.02 (≈ 0.0212 µM)
